EC50 data for 25 molecules are collected here from patent US9428507B2, “Compounds for the treatment of malaria” (The Broad Institute, Inc., priority 2013, dated 2016).

The test system of this test is Dd2 strain of P. falciparum. Briefly: Activity against the Dd2 strain of P. falciparum (SYBR Green I, 72-h incubation). Format: cell-based. The conditions noted are these: read-out: EC^50 Dd2. The method, then:
The Dd2 strain of P. falciparum was cultured in complete medium (RPMI with L-glutamine, 4.3% heat-inactivated O-positive human serum, 2.08 mg/ml albumax, 0.013 mg/ml hypoxanthine, 1.17 mg/ml glucose, 0.18% NaHCO3, 0.031 M Hepes, 2.60 mM NaOH, and 0.043 mg/ml gentamicin) until the parasitemia reached 3-8%. Parasitemia was determined by checking at least 500 red blood cells from a Giemsa-stained blood smear. The Dd2 cultures along with tested O-positive red blood cells are centrifuged at room temperature at 2,000 rpm for 5 min using an Eppendorf centrifuge 581 OR with an A-4-81 rotor. The medium was aspirated off. For the compound screening, a parasite dilution at a 1% parasitemia and 1.0% hematocrit was created with screening medium (RPMI with L-glutamine, 4.16 mg/ml albumax II, 0.013 mg/ml hypoxanthine, 1.73 mg/ml glucose, 0.18% NaHCO3, 0.031M Hepes, 2.60 mM NaOH, and 0.043 mg/ml gentamicin). The suspension was gassed with 93% nitrogen, 4% carbon dioxide, and 3% oxygen and placed at 37° C. until needed. Using a liquid dispenser, 20 μl of screening medium was dispensed into 384-well, black, clear-bottom plates. With a PinTool, 100 nl of compounds dissolved in DMSO was transferred into the assay plates along with control compound (mefloquine). Next, 30 μl of the parasite suspension in screening medium was then dispensed into the assay plates such that the final parasitemia was 1%, and the final hematocrit was 1.0%. Final concentration of DMSO was 0.125%. Mefloquine at a final concentration of 20 μM and DMSO at a final concentration of 0.125% were used within the assay plates to serve as background and baseline controls, respectively. The assay plates were transferred to incubators (93% nitrogen, 4% carbon dioxide, and 3% oxygen during the 72-h incubation at 37° C.). Ten microliters of detection reagent consisting of 1 OX SYBR Green I (Invitrogen; supplied in 10,000× concentration) in lysis buffer (20 mM Tris-HCl, 5 mM EDTA, 0.16% Saponin wt/vol, 1.6% Triton X vol/vol) was dispensed into the assay plates. For optimal staining, the assay plates were left at room temperature for 24 h in the dark. The assay plates were read by using an Envision (PerkinElmer) reader, with 505 dichroic mirrors with 485-nm excitation and 530-nm emission settings, and the plate reads were from the bottom.

Where [1] appears, read: Plasmodium falciparum, DD2, 72 h.

Molecules are shown by their SMILES. Where two headings read alike, the source gives them in different places.

Consider `COc1ccc2c3c([nH]c2c1)C(CO)N(C(=O)Nc1ccc(F)cc1)CC31CCN(Cc2cc(-c3ccccc3)on2)CC1` (stereo in doubt) [Compound 111, (R)-N-(4-fluorophenyl)-1′-(hydroxymethyl)-7′-methoxy-1-((5-phenylisoxazol-3-yl)methyl)-3′,9′-dihydrospiro [piperidine-4,4′-pyrido[3,4-b]indole]-2′(1′H)-carboxamide], for which the EC50 under setting [1] was determined as 0.451 µM. Consider `COc1ccc2c3c([nH]c2c1)[C@H](CO)N(C(C)=O)CC31CCN(C(=O)Nc2ccccc2Cl)CC1` [Compound 1, (R)-2′-acetyl-N-(2-chlorophenyl)-1′-(hydroxymethyl)-7′ -methoxy-1′,2′,3′,9′-tetrahydrospiro [piperidine-4,4′-pyrido [3,4-b]indole]-1-carboxamide], for which, under setting [1], the EC50 was 0.214 to 0.345 µM. As to `COc1ccc2c3c([nH]c2c1)C(C)(C)N(C(C)=O)CC31CCN(C(=O)Nc2ccccc2F)CC1` [Compound 2, 2′-acetyl-N-(2-fluorophenyl)-7′ -methoxy-1′,1′-dimethyl-1′,2′,3′,9′-tetrahydrospiro [piperidine-4,4′-pyrido[3,4-b]indole]-1-carboxamide], the EC50 under setting [1] was in the range of 0.12 to 0.303 µM. Still for that read-out and setting: under `COc1ccc2c3c([nH]c2c1)[C@H](CO)N(C(=O)C(F)(F)F)CC31CCN(C(=O)Nc2ccccc2F)CC1` [Compound 3, (R)-N-(2-fluorophenyl)-1′-(hydroxymethyl)-7′-methoxy-2′-(2,2,2-trifluoroacetyl)-1′,2′,3′,9′-tetrahydrospiro[piperidine-4,4′-pyrido[3,4-b]indole]-1-carboxamide] stands 1.61 µM; under `COc1ccc2c3c([nH]c2c1)[C@H](CO)N(C(C)=O)CC31CCNCC1` [Compound 4, (R)-1-(1′-(hydroxymethyl)-7′-methoxyspiro [piperidine-4,4′-pyrido[3,4-b]indol]-2′(1′H,3′H,9′H)-yl)ethanone], 10.7 µM. `COc1ccc2c3c(n(C)c2c1)[C@H](CO)N(C(C)=O)CC31CCN(C(=O)Nc2ccccc2F)CC1` [Compound 5, (R)-2′-acetyl-N-(2-fluorophenyl)-1′-(hydroxymethyl)-7′-methoxy-9′-methyl-1′,2′,3′,9′-tetrahydrospiro [piperidine-4,4′-pyrido[3,4-b]indole]-1-carboxamide]: the EC50 under setting [1] amounted to 6.49 µM. `CNC[C@H]1c2[nH]c3cc(OC)ccc3c2C2(CCN(C(=O)Nc3ccccc3F)CC2)CN1C(C)=O` [Compound 6, (S)-2′-acetyl-N-(2-fluorophenyl)-7′-methoxy-1′-((methylamino)methyl)-1′,2′,3′,9′-tetrahydrospiro[piperidine-4,4′-pyrido[3,4-b]indole]-1-carboxamide]: the EC50 under setting [1] lay in the range of 0.183 to 0.319 µM.

In the case of `COc1ccc2c3c([nH]c2c1)[C@H](CO[Si](C)(C)C(C)(C)C)N(C(C)=O)CC31CCN(C(=O)Nc2cccnc2)CC1` [Compound 7], under setting [1], the EC50 was 1.38 µM. Regarding `COc1ccc2c3c([nH]c2c1)[C@H](CO)N(C(C)=O)CC31CCN(C(=O)Nc2ccc(F)cc2)CC1` [Compound 8, (R)-2′-acetyl-N-(4-fluorophenyl)-1′-(hydroxymethyl)-7′ -methoxy-1′,2′,3′,9′-tetrahydrospiro[piperidine-4,4′-pyrido[3,4-b]indole]-1-carboxamide], the EC50 under setting [1] was found to be 1.77 µM. Turning to `COc1ccc2c3c([nH]c2c1)[C@H](CO)N(C(=O)C(C)C)CC31CCN(C(=O)Nc2ccccc2F)CC1` [Compound 9], under setting [1], the EC50 worked out at 2.91 µM.

On to `COc1ccc2c3c([nH]c2c1)[C@H](CO)N(C(C)=O)CC31CCN(C(=O)Nc2ccc(Cl)cc2)CC1` [Compound 10], for which the EC50 under setting [1] is 3.38 µM. With `COc1ccc2c3c([nH]c2c1)C(C)(C)NCC31CCN(C(=O)OC(C)(C)C)CC1` [Compound 11], the EC50 under setting [1] stood at 4.43 µM.

For the molecule `COc1ccc2c3c([nH]c2c1)[C@H](CO)N(C(=O)Cc1ccccc1)CC31CCN(C(=O)Nc2ccccc2F)CC1` [Compound 12], the EC50 is 0.246 to 0.291 µM. `COc1ccc2c3c([nH]c2c1)[C@H](CO)N(C(C)=O)CC31CCN(C(=O)Nc2cccc(Cl)c2)CC1` [Compound 13, (R)-2′-acetyl-N-(3-chlorophenyl)-1′-(hydroxymethyl)-7′-methoxy-1′,2′,3′,9′-tetrahydrospiro [piperidine-4,4′-pyrido[3,4-b]indole]-1-carboxamide]: the EC50 under setting [1] is 0.127 to 0.162 µM. Take `COc1ccc2c3c([nH]c2c1)C(C)(C)N(C(C)=O)CC31CCN(C(=O)OC(C)(C)C)CC1` [Compound 14, tert-butyl 2′-acetyl-7′-methoxy-1′,1′-dimethyl-1′,2′,3′,9′-tetrahydrospiro [piperidine-4,4′-pyrido[3,4-b]indole]-1-carboxylate]: the EC50 under setting [1] came to 0.415 µM.

With `C=CCOC(=O)N1CC2(CCN(C(=O)Nc3ccccc3F)CC2)c2c([nH]c3cc(OC)ccc23)[C@@H]1CO` [Compound 16, (R)-allyl 1-((2-fluorophenyl)carbamoyl)-1′-(hydroxymethyl)-7′-methoxy-3′,9′-dihydrospiro[piperidine-4,4′-pyrido[3,4-b]indole]-2′(1′H)-carboxylate], under setting [1], the EC50 is 2.41 µM. `COc1ccc2c3c(n(C)c2c1)[C@H](COC(C)=O)N(C(C)=O)CC31CCN(C(=O)Nc2ccccc2F)CC1` [Compound 17, (R)-(2′-acetyl-1-((2-fluorophenyl)carbamoyl)-7′-methoxy-9′-methyl-1′,2′,3′,9′-tetrahydrospiro[piperidine-4,4′-pyrido[3,4-b]indol]-1′-yl)methylacetate]: the EC50 under setting [1] was 0.834 µM. With `C=CCOC(=O)N1CC2(CCN(C(=O)OC(C)(C)C)CC2)c2c([nH]c3cc(OC)ccc23)[C@@H]1CO[Si](C)(C)C(C)(C)C` [Compound 18, (R)-2′-allyl 1-tert-butyl 1′-(((tert-butyldimethylsilyl)oxy)methyl)-7′-methoxy-3′,9′-dihydrospiro[piperidine-4,4′-pyrido[3,4-b]indole]-1,2′(1′H)-dicarboxylate], the EC50 under setting [1] was found to be 0.763 µM. Regarding `COc1ccc2c3c([nH]c2c1)[C@H](CO[Si](C)(C)C(C)(C)C)N(C(C)=O)CC31CCN(CCc2ccccc2F)CC1` [Compound 19, (R)-1-(1′-(((tert-butyldimethylsilyl)oxy)methyl)-1-(2-fluorophenethyl)-7′-methoxyspiro[piperidine-4,4′-pyrido[3,4-b]indol]-2′(1′H,3′H,9′H)-yl)ethanone], the EC50 under setting [1] stood at 1.2 µM. For `CCC(=O)N1CC2(CCN(C(=O)Nc3ccccc3F)CC2)c2c([nH]c3cc(OC)ccc23)[C@@H]1CO` [Compound 20, (R)-N-(2-fluorophenyl)-1′-(hydroxymethyl)-7′-methoxy-2′-propionyl-1′,2′,3′,9′-tetrahydrospiro[piperidine-4,4′-pyrido[3,4-b]indole]-1-carboxamide], under setting [1], the EC50 amounted to 0.62 µM. On the same count and under the same terms, for `COc1ccc2c3c([nH]c2c1)[C@H](CO)N(C(C)=O)CC31CCN(Cc2ccccc2F)CC1` [Compound 21, (R)-1-(1-(2-fluorobenzyl)-1′-(hydroxymethyl)-7′-methoxyspiro[piperidine-4,4′-pyrido[3,4-b]indol]-2′(1′H,3′H,9′H)-yl)ethanone] the value was 4.01 µM; for `COc1ccc2c3c([nH]c2c1)[C@H](CO[Si](C)(C)C(C)(C)C)N(C(=O)C(C)(C)C)CC31CCN(C(=O)Nc2ccccc2F)CC1` [Compound 22, (R)-1′-(((tert-butyldimethylsilyl)oxy)methyl)-N-(2-fluorophenyl)-7′-methoxy-2′-pivaloyl-l′,2′,3′,9′-tetrahydrospiro[piperidine-4,4′-pyrido[3,4-b]indole]-1-carboxamide], 0.43 µM; for `COc1ccc2c3c([nH]c2c1)[C@H](CO)N(C(=O)C(C)(C)C)CC31CCN(C(=O)Nc2ccccc2F)CC1` [Compound 23, (R)-N-(2-fluorophenyl)-1′-(hydroxymethyl)-7′-methoxy-2'-pivaloyl-1′,2′,3′,9′-tetrahydrospiro[piperidine-4,4′-pyrido[3,4-b]indole]-1-carboxamide], 2.4 µM. Same read-out and setting: for `COc1ccc2c3c([nH]c2c1)[C@H](CO[Si](C)(C)C(C)(C)C)N(C(C)=O)CC31CCN(C(=O)OC(C)(C)C)CC1` [Compound 24, (R)-tert-butyl 2′-acety1-1′-(((tert-butyldimethylsilyl)oxy)methyl)-7′-methoxy-1′,2′,3′,9′-tetrahydrospiro [piperidine-4,4′-pyrido[3,4-b]indole]-1-carboxylate] the value was 1.24 µM; for `COc1ccc2c3c([nH]c2c1)[C@H](CO[Si](C)(C)C(C)(C)C)N(C(C)=O)CC31CCNCC1` [Compound 25, (R)-1-(1′-(((tert-butyldimethylsilyl)oxy)methyl)-7′-methoxyspiro[piperidine-4,4′-pyrido[3,4-b]indol]-2′(1′H,3′H,9′H)-yl)ethanone], 1.62 µM.
